{
  "source": "patent US20050250709A1",
  "about": "“Anti-neoplastic agents, combination therapies and related methods” (Bionaut Pharmaceuticals, priority 2003, published 2005)",
  "key": {"[1]": {"tested_on": "EGF, HIF responsive cell line (HIF-responsive reporter gene)", "assay": "reporter gene assay in EGF, HIF responsive cancer cell line", "type": "cell-based", "conditions": "for effect on regulated reporter gene expression (screen): single agents, screen of thousands of compounds", "protocol": "(§1) Cancer cell lines (Panc1, for pancreatic cancer, and A549 for non-small cell lung carcinoma) were transfected with the construct depicted in FIG. 1. The retroviral vector contained a […] gene (a negative selection marker), a zeocin resistance marker (a positive selection marker) and a gene encoding beta-galactosidase “β-gal”, as a reporter gene.\n(§2) Cells were grown to a significant cell density and exposed to zeocin, so as to select for cells expressing the zeocin marker in the presence of high levels of extracellular signaling. […] Under these conditions, cells were exposed to an agent such as ganciclovir that causes lethality in TK+ cells. This selection step eliminated those cells containing a nucleic acid construct that is expressed at significant levels even in low extracellular signaling conditions. The resulting cells were then used for further study.\nAn EGF, HIF responsive cell line was screened for compounds affecting the regulated gene expression. Thousands of compounds were screened."}, "[2]": {"tested_on": "MCF-7/Breast", "assay": "anti-proliferative effect, MCF-7 breast cancer cell line", "type": "cell-based", "conditions": "Homo sapiens, MCF7", "description": "(§3) The inhibition of reporter activity was later correlated with an anti-proliferative effect in representative colon, lung, prostate, cervical, renal, uterine, breast, and pancreatic cancer cell lines as shown in table 1."}, "[3]": {"tested_on": "several different cancer cell lines", "assay": "proliferation of cancer cell lines (several lines, summary)", "type": "cell-based", "conditions": "range over cell lines, read-out: IC50 across several different cancer cell lines", "protocol": "The IC50 measured for ouabain across several different cancer cell lines ranged from about 80 nM to about 300 nM. The concentration at which a cardiac glycoside is effective as part of an antiproliferative treatment may be further decreased by combination with an additional agent that negatively regulates HIF-responsive genes, such as a redox effector or a steroid signal modulator. For example, as shown herein, the concentration at which a cardiac glycoside (ouabain) is effective for inhibiting proliferation of cancer cells is decreased 5-fold by combination with a steroid signal modulator (Casodex). Therefore, in certain embodiments, the invention provides combination therapies of cardiac glycosides with, for example, steroid signal modulators and/or redox effectors. Additionally, cardiac glycosides may be combined with radiation therapy, taking advantage of the radiosensitizing effect that many cardiac glycosides have."}, "[4]": {"tested_on": "A549/Lung", "assay": "anti-proliferative effect, A549 lung cancer cell line", "type": "cell-based", "conditions": "Homo sapiens", "description": "as §3"}, "[5]": {"tested_on": "SK-MES/Lung", "assay": "anti-proliferative effect, SK-MES lung cancer cell line", "type": "cell-based", "description": "as §3"}, "[6]": {"tested_on": "Panc-1", "assay": "anti-proliferative effect, Panc-1 pancreatic cancer cell line", "type": "cell-based", "conditions": "Homo sapiens; Panc-1, anti-proliferative", "description": "as §3"}, "[7]": {"tested_on": "HCT-116/Colon", "assay": "anti-proliferative effect, HCT-116 colon cancer cell line", "type": "cell-based", "conditions": "Homo sapiens", "description": "as §3"}, "[8]": {"tested_on": "PC3/Prostate", "assay": "anti-proliferative effect, PC3 prostate cancer cell line", "type": "cell-based", "description": "as §3"}, "[9]": {"tested_on": "LnCap/Prostate", "assay": "anti-proliferative effect, LnCap prostate cancer cell line", "type": "cell-based", "conditions": "Homo sapiens", "description": "as §3"}, "[10]": {"tested_on": "DU-145/Prostate", "assay": "anti-proliferative effect, DU-145 prostate cancer cell line", "type": "cell-based", "conditions": "Homo sapiens", "description": "as §3"}, "[11]": {"tested_on": "Caki-1/Renal", "assay": "anti-proliferative effect, Caki-1 renal cancer cell line", "type": "cell-based", "conditions": "Homo sapiens", "description": "as §3"}, "[12]": {"tested_on": "HT-29/Colon", "assay": "anti-proliferative effect, HT-29 colon cancer cell line", "type": "cell-based", "conditions": "Homo sapiens", "description": "as §3\nThe ouabain concentration required to achieve an antiproliferative effect in cells of the HT29 colon cancer cell line (FIG. 20) is decreased five-fold in the presence of bicalutamide (Casodex)."}, "[13]": {"tested_on": "MES-SA-DX5/Uterine", "assay": "anti-proliferative effect, MES-SA-DX5 uterine cancer cell line", "type": "cell-based", "conditions": "Homo sapiens", "description": "as §3"}, "[14]": {"tested_on": "C-33A/Cervical", "assay": "anti-proliferative effect, C-33A cervical cancer cell line", "type": "cell-based", "conditions": "Homo sapiens", "description": "as §3"}, "[15]": {"tested_on": "MES-SA/Uterine", "assay": "anti-proliferative effect, MES-SA uterine cancer cell line", "type": "cell-based", "conditions": "Homo sapiens", "description": "as §3"}, "[16]": {"tested_on": "EGF-responsive gene expression", "assay": "EGF-responsive gene expression in recovered reporter cell lines", "type": "cell-based", "protocol": "as §1\nas §2, with “signaling. Cells were also exposed to a growth factor, such as EGF, insulin or IGF, although in some instances, the growth factor had only minor effects on gene expression compared to the generalized effect of extracellular signaling. The selected cell cultures were greatly depleted of cells by zeocin treatment, as the vast majority of cells were eliminated by the zeocin.” for “signaling.”\nFIGS. 3 through 9 depict the results from a series of experiments characterizing the recovered cell lines. […]"}, "[17]": {"tested_on": "HIF-2α protein", "assay": "level of HIF-2α protein in cancer cells", "type": "cell-based"}, "[18]": {"assay": "serum half-life"}},
  "note": "Counter-ions that a name gives are not always drawn.",
  "data": [
    {"molecule": "CC(=O)O[C@H]1C[C@H](O[C@H]2[C@@H](O)C[C@H](O[C@H]3[C@@H](O)C[C@H](O[C@H]4CC[C@@]5(C)[C@H](CC[C@@H]6[C@@H]5C[C@@H](O)[C@]5(C)[C@@H](C7=CC(=O)OC7)CC[C@]65O)C4)O[C@@H]3C)O[C@@H]2C)O[C@H](C)[C@H]1O[C@@H]1O[C@H](CO)[C@@H](O)[C@H](O)[C@H]1O", "note": "[lanatoside C]", "values": [
      {"measurement": "effect on regulated reporter gene expression (screen)", "setting": "[1]", "result": "effective"}
    ]},
    {"molecule": "C[C@H]1O[C@@H](O[C@H]2[C@@H](O)C[C@H](O[C@H]3[C@@H](O)C[C@H](O[C@H]4CC[C@@]5(C)[C@H](CC[C@@H]6[C@@H]5C[C@@H](O)[C@]5(C)[C@@H](C7=CC(=O)OC7)CC[C@]65O)C4)O[C@@H]3C)O[C@@H]2C)C[C@H](O)[C@@H]1O", "note": "[digoxin]", "values": [
      {"measurement": "effect on regulated reporter gene expression (screen)", "setting": "[1]", "result": "effective"}
    ]},
    {"molecule": "OC(c1cc(C(F)(F)F)nc2c(C(F)(F)F)cccc12)C1CCCCN1", "note": "(stereo not drawn) [mefloquine hydrochloride]", "values": [
      {"measurement": "effect on regulated reporter gene expression (screen)", "setting": "[1]", "result": "effective"}
    ]},
    {"molecule": "Clc1ccccc1C(c1ccccc1)(c1ccccc1)n1ccnc1", "note": "[clotrimazole]", "values": [
      {"measurement": "effect on regulated reporter gene expression (screen)", "setting": "[1]", "result": "effective"}
    ]},
    {"molecule": "C[C@@H]1O[C@@H](O[C@H]2C[C@@H](O)[C@]3(CO)[C@H]4[C@H](O)C[C@]5(C)[C@@H](C6=CC(=O)OC6)CC[C@]5(O)[C@@H]4CC[C@]3(O)C2)[C@H](O)[C@H](O)[C@H]1O", "note": "[Ouabain, ouabain]", "values": [
      {"measurement": "IC50", "setting": "[2]", "result": 100, "unit": "nM"},
      {"measurement": "IC50", "setting": "[3]", "result": "80 to 300", "unit": "nM"},
      {"measurement": "IC50", "setting": "[4]", "result": 300, "unit": "nM"},
      {"measurement": "IC50", "setting": "[5]", "result": 100, "unit": "nM"},
      {"measurement": "IC50", "setting": "[6]", "result": 150, "unit": "nM"},
      {"measurement": "IC50", "setting": "[7]", "result": 150, "unit": "nM"},
      {"measurement": "IC50", "setting": "[8]", "result": 150, "unit": "nM"},
      {"measurement": "IC50", "setting": "[9]", "result": 150, "unit": "nM"},
      {"measurement": "required dose for inhibition of reporter activity relative to cardiotonic dose", "setting": "[1]", "result": "well below the dose required for ouabain as a cardiotonic agent"},
      {"measurement": "effect on regulated reporter gene expression (screen)", "setting": "[1]", "result": "effective"},
      {"measurement": "IC50", "setting": "[10]", "result": 300, "unit": "nM"},
      {"measurement": "IC50", "setting": "[11]", "result": 150, "unit": "nM"},
      {"measurement": "IC50", "setting": "[12]", "result": "> 800", "unit": "nM"},
      {"measurement": "IC50", "setting": "[13]", "result": 80, "unit": "nM"},
      {"measurement": "IC50", "setting": "[14]", "result": 100, "unit": "nM"},
      {"measurement": "IC50", "setting": "[15]", "result": 80, "unit": "nM"}
    ]},
    {"molecule": "COc1cc2ncnc(Nc3ccc(F)c(Cl)c3)c2cc1OCCCN1CCOCC1", "note": "[Iressa]", "values": [
      {"measurement": "EGF-responsive gene expression", "setting": "[16]", "result": "inhibited"}
    ]},
    {"molecule": "CC/C(=C(/CC)c1ccc(O)cc1)c1ccc(O)cc1", "note": "[diethylstilbestrol]", "values": [
      {"measurement": "effect on regulated reporter gene expression (screen)", "setting": "[1]", "result": "effective"}
    ]},
    {"molecule": "O=C(Nc1ccc([N+](=O)[O-])cc1Cl)c1cc(Cl)ccc1O", "note": "[Niclosamide, niclosamide]", "values": [
      {"measurement": "IC50", "setting": "[2]", "result": 2500, "unit": "nM"},
      {"measurement": "IC50", "setting": "[4]", "result": 1500, "unit": "nM"},
      {"measurement": "IC50", "setting": "[5]", "result": 2000, "unit": "nM"},
      {"measurement": "IC50", "setting": "[6]", "result": 5000, "unit": "nM"},
      {"measurement": "IC50", "setting": "[7]", "result": 800, "unit": "nM"},
      {"measurement": "IC50", "setting": "[8]", "result": 5000, "unit": "nM"},
      {"measurement": "IC50", "setting": "[9]", "result": 2000, "unit": "nM"},
      {"measurement": "effect on regulated reporter gene expression (screen)", "setting": "[1]", "result": "effective"},
      {"measurement": "level of HIF-2α protein", "setting": "[17]", "result": "decrease"},
      {"measurement": "IC50", "setting": "[10]", "result": 5000, "unit": "nM"},
      {"measurement": "IC50", "setting": "[11]", "result": 1500, "unit": "nM"},
      {"measurement": "serum half-life", "setting": "[18]", "result": "short"},
      {"measurement": "IC50", "setting": "[12]", "result": 8000, "unit": "nM"},
      {"measurement": "IC50", "setting": "[13]", "result": 6000, "unit": "nM"},
      {"measurement": "IC50", "setting": "[14]", "result": 5000, "unit": "nM"},
      {"measurement": "IC50", "setting": "[15]", "result": 9000, "unit": "nM"}
    ]},
    {"molecule": "C/C=C(/C(=C/C)c1ccc(O)cc1)c1ccc(O)cc1", "note": "[dienestrol]", "values": [
      {"measurement": "effect on regulated reporter gene expression (screen)", "setting": "[1]", "result": "effective"}
    ]},
    {"molecule": "C[C@]12CC[C@H](O)C[C@H]1CC[C@@H]1[C@@H]2CC[C@]2(C)[C@@H](C3=CC(=O)OC3)CC[C@]12O", "note": "[digitoxigenin]", "values": [
      {"measurement": "effect on regulated reporter gene expression (screen)", "setting": "[1]", "result": "effective"}
    ]},
    {"molecule": "CC(C)/N=c1\\cc2n(-c3ccc(Cl)cc3)c3ccccc3nc-2cc1Nc1ccc(Cl)cc1", "note": "[clofazimine]", "values": [
      {"measurement": "effect on regulated reporter gene expression (screen)", "setting": "[1]", "result": "effective"}
    ]},
    {"molecule": "CC1=CC(=O)c2ccccc2C1=O", "note": "[menadione]", "values": [
      {"measurement": "effect on regulated reporter gene expression (screen)", "setting": "[1]", "result": "effective"}
    ]},
    {"molecule": "CCCCC(CC)CNC(=N)NC(=N)NCCCCCCNC(=N)NC(=N)NCC(CC)CCCC", "note": "(stereo not drawn) [alexidine dihydrochloride]", "values": [
      {"measurement": "effect on regulated reporter gene expression (screen)", "setting": "[1]", "result": "effective"}
    ]},
    {"molecule": "Clc1ccc(COC(Cn2ccnc2)c2ccc(Cl)cc2Cl)cc1", "note": "(stereo not drawn) [econazole nitrate]", "values": [
      {"measurement": "effect on regulated reporter gene expression (screen)", "setting": "[1]", "result": "effective"}
    ]},
    {"molecule": "CCCC(C(=O)OCCN(CC)CC)(c1ccccc1)c1ccccc1", "note": "[proadifen hydrochloride]", "values": [
      {"measurement": "effect on regulated reporter gene expression (screen)", "setting": "[1]", "result": "effective"}
    ]}
  ]
}
